Measurements published in patent publication US8088918B2, “Noncardiotoxic pharmaceutical compounds” (Williamsburg Holdings LLC, priority 2004, dated 2012).

Tests used:
[1] = Stability testing of prodrugs in human plasma; assay type: in vitro ADME; settings: 10 μM, ca. 37° C.
Method: (§1) Pooled human plasma was obtained from Bioreclamation (East Meadow, N.Y.) by collection into sodium EDTA as the anticoagulant, and was stored at ca −20° C. prior to use. Prior to use, the plasma defrosted and was spun at ca. 3000 rpm for 5 minutes to remove any precipitate. The pH of the plasma was adjusted to pH 7.4 by careful addition of NaH2PO4 buffer.
(§2) Plasma stability was assessed by incubation of 10 μM of each compound prepared in Examples 1-5 with human plasma, in duplicate, at ca. 37° C. with shaking. Each compound prepared in Examples 1-5 was also incubated at 10 μM in PBS as a control for compound heat stability. Aliquots were removed at 0, 0.5, 1 and 2 hours and stored at −20° C. until analysis.
(§3) For analysis, plasma samples were extracted in 1 part acetonitrile and isolation of the supernatant. Analysis of each compound prepared in Examples 1-5 in plasma extracts was conducted by an LC-MS method at each time interval and quantification was achieved by comparison of the response due to the sample to that of a three point standard curve. Appearance of the parent drug the hydroxymetabolites were also monitored at each time interval. The % degradation following incubation at each time point was calculated by comparison of the parent concentration to that at 0 minutes.

[2] = Stability testing of prodrugs in rat plasma (elevated esterase activity); assay type: in vitro ADME, Sprague-Dawley rat; settings: 10 μM, ca. 37° C.
Method: as §1, with “Sprague-Dawley rat” for “Pooled human”, “obtained” for “obtained from Bioreclamation (East Meadow, N.Y.)”
as §2, with “rat” for “human”
as §3, with “drug and” for “drug”

[3] = Metabolic stability, microsomal incubations without inhibitor; assay type: in vitro ADME; settings: 10 μM, 0.5 mg/mL microsomal protein
Method: (§4) The metabolic stability of each compound prepared in Examples 1-5 was assessed in microsomal preparations obtained from BD Gentest (Woburn, Mass.).
(§5) The metabolic stability of each compound prepared in Examples 1-5 was assessed in duplicate by incubation of 10 μM compound with 0.5 mg/mL microsomal protein, 1 mM in 0.1 M phosphate buffer, pH 7.4 in the presence and absence of a CYP3A4 inhibitor (ketoconazole). The reaction mixture was pre-incubated, in the absence of the microsomes, at ca. 37° C. for 5 minutes, followed by initiation of the incubation by the addition of microsomal protein and maintained at ca. 37° C. for a further 0, 30 and 60 minutes. After the appropriate incubation time, the mixtures were quenched by the addition of one volume of acetonitrile and the supernatant was isolated by centrifugation. Positive control incubations (7-ethoxycoumarin) were performed in the same manner as the compounds from Examples 1-5 and quenched after 0 and 30 minutes. In addition, negative control incubations were performed for 60 minutes in the absence of NADPH to assess chemical stability.
(§6) Analysis of supernatants from each time interval was conducted for each compound prepared in Examples 1-5 by LC-MS analysis. Quantification of the disappearance on the parent drug was achieved by comparison of the sample response to that of a suitable standard curve constructed in 0.1 M phosphate buffer, pH 7.4. The standard curve ranged between ≦1% up to ≧100% of the dosing concentration.
(§7) The % turnover following 60 minutes of incubation was calculated by comparison of the parent concentration to that at 0 minutes. The % degradation was calculated in the same manner from the negative control incubations. Appearance of the parent drug and the hydroxymetabolites were also monitored at each time interval.

[4] = Metabolic stability, microsomal incubations with ketoconazole (CYP3A4 inhibitor); assay type: in vitro ADME; settings: 10 μM, 0.5 mg/mL microsomal protein
Method: as §4, §5, §6, §7

recombinant human CYP3A4 = target: T1, recombinant human CYP3A4 (Homo sapiens, UniProt P08684); experiment: Metabolic stability in the presence of CYP3A4 isozyme; assay type: in vitro ADME; settings: 10 μm compound
T1 construct: purchased BD Gentest (Woburn, Mass.)
Method: (§8) The metabolic stability of each compound prepared in Examples 1-5 was assessed in the presence of CYP2D6 and CYP3A4 obtained from BD Gentest (Woburn, Mass.).
(§9) The metabolic stability of each compound prepared in Examples 1-5 was assessed in duplicate by incubation of 10 μm compound with recombinant human CYP2D6 and 3A4 using similar conditions to those in Example 9. Samples were removed for analysis at 0, 30 and 60 minutes and extracted with one volume of organic solvent. Appropriate controls were included. Quantification of the disappearance of the prodrug was conducted LC-MS. Appearance of metabolites was also monitored.

CYP2D6 = CYP2D6 (Homo sapiens, UniProt P10635); experiment: Metabolic stability in the presence of CYP2D6 isozyme; assay type: in vitro ADME; design: purchased BD Gentest (Woburn, Mass.); settings: 10 μm compound
Method: as §8, §9

[5] = Stability testing in simulated gastric fluids; settings: 10 μM, saline pH approximately 1 plus pepsin
[6] = Stability testing in simulated intestinal fluids; settings: 10 μM
[7] = human plasma; cited from earlier work
[8] = parent drugs; cited from earlier work
[9] = phosphate pH 6, incubation time 0 min
[10] = phosphate pH 6, incubation time 30 min
[11] = phosphate pH 6, incubation time 60 min
[12] = phosphate pH 6, incubation time 120 min

T1 sequence (P08684 whole entry): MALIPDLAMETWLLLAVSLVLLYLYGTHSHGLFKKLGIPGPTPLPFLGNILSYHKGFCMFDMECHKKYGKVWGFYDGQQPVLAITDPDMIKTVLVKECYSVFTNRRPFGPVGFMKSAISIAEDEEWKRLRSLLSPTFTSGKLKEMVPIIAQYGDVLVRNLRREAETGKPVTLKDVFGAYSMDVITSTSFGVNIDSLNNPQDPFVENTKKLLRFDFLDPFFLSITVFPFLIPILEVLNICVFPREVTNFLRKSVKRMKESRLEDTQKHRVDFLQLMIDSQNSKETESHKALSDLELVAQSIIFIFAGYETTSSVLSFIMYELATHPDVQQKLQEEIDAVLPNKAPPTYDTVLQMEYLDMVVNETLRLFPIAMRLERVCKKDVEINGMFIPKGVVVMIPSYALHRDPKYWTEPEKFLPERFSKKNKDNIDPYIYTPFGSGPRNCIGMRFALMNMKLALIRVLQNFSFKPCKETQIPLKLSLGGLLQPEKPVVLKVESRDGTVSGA
Chain of CYP2D6 (P10635 whole entry): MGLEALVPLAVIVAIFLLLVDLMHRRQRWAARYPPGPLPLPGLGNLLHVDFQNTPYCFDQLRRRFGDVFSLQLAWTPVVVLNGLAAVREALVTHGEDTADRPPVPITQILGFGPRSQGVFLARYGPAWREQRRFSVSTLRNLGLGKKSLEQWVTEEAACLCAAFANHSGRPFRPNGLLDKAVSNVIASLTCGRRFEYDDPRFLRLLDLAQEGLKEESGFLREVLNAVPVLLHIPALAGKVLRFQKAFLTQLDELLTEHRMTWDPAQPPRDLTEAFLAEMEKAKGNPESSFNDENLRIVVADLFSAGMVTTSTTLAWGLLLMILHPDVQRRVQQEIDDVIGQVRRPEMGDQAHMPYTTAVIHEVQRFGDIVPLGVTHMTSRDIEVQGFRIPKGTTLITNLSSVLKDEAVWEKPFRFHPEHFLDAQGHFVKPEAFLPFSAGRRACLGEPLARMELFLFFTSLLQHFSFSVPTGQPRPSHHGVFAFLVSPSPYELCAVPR

COC(=O)N(C)CCCN1c2ccccc2CCc2ccccc21 [RIC-5a, [3-(10,11-Dihydro-dibenzo[b,f]azepin-5-yl)-propyl]-methyl-carbamic acid methyl ester]
Loss of parent compound in human plasma (%) ([1]; incubation time 0 min): 0.00%
Loss of parent compound in human plasma (%) ([1]; incubation time 30 min): 5.47%
Loss of parent compound in human plasma (%) ([1]; incubation time 60 min): 15.80%
Loss of parent compound in human plasma (%) ([1]; incubation time 120 min): 26.22%
Loss of parent compound in rat plasma (%) ([2]; incubation time 0 min): 0.00%
Loss of parent compound in rat plasma (%) ([2]; incubation time 30 min): 8.81%
Loss of parent compound in rat plasma (%) ([2]; incubation time 60 min): 23.43%
Loss of parent compound in rat plasma (%) ([2]; incubation time 120 min): 45.85%
Loss of parent compound with no ketoconazole (%) ([3]; incubation time 30 min): 70.94%
Loss of parent compound with no ketoconazole (%) ([3]; incubation time 60 min): 87.25%
Loss of parent compound with ketoconazole (%) ([4]; incubation time 30 min): 27.65%
Loss of parent compound with ketoconazole (%) ([4]; incubation time 60 min): 62.37%
Loss of parent compound with CYP3A4 isozyme (%) (recombinant human CYP3A4; incubation time 0 min): 0.00%
Loss of parent compound with CYP3A4 isozyme (%) (recombinant human CYP3A4; incubation time 30 min): 91.32%
Loss of parent compound with CYP3A4 isozyme (%) (recombinant human CYP3A4; incubation time 60 min): 97.96%
Loss of parent compound with CYP2D6 isozyme (%) (CYP2D6; incubation time 0 min): 0.00%
Loss of parent compound with CYP2D6 isozyme (%) (CYP2D6; incubation time 30 min): 73.91%
Loss of parent compound with CYP2D6 isozyme (%) (CYP2D6; incubation time 60 min): 83.13%
Loss of parent compound in simulated gastric fluid (%) ([5]; incubation time 0 min): 0.00%
Loss of parent compound in simulated gastric fluid (%) ([5]; incubation time 30 min): 13.93%
Loss of parent compound in simulated gastric fluid (%) ([5]; incubation time 60 min): 31.78%
Loss of parent compound in simulated gastric fluid (%) ([5]; incubation time 120 min): 81.43%
Loss of parent compound in simulated intestinal fluid (%) [6, 9]: 0.00%
Loss of parent compound in simulated intestinal fluid (%) [6, 10]: 16.75%
Loss of parent compound in simulated intestinal fluid (%) [6, 11]: 22.88%
Loss of parent compound in simulated intestinal fluid (%) [6, 12]: 35.18%

CCCOC(=O)N(C)CCCN1c2ccccc2CCc2ccccc21 [RIC-5b, [3-(10,11-Dihydro-dibenzo[b,f]azepin-5-yl)-propyl]-methyl-carbamic acid propyl ester]
Loss of parent compound in human plasma (%) ([1]; incubation time 0 min): 0.00%
Loss of parent compound in human plasma (%) ([1]; incubation time 30 min): 7.15%
Loss of parent compound in human plasma (%) ([1]; incubation time 60 min): 6.85%
Loss of parent compound in human plasma (%) ([1]; incubation time 120 min): 21.06%
Loss of parent compound in rat plasma (%) ([2]; incubation time 0 min): 0.00%
Loss of parent compound in rat plasma (%) ([2]; incubation time 30 min): 7.17%
Loss of parent compound in rat plasma (%) ([2]; incubation time 60 min): 8.34%
Loss of parent compound in rat plasma (%) ([2]; incubation time 120 min): 23.42%
Loss of parent compound with no ketoconazole (%) ([3]; incubation time 30 min): 64.76%
Loss of parent compound with no ketoconazole (%) ([3]; incubation time 60 min): 82.29%
Loss of parent compound with ketoconazole (%) ([4]; incubation time 30 min): 31.69%
Loss of parent compound with ketoconazole (%) ([4]; incubation time 60 min): 50.21%
Loss of parent compound with CYP3A4 isozyme (%) (recombinant human CYP3A4; incubation time 0 min): 0.00%
Loss of parent compound with CYP3A4 isozyme (%) (recombinant human CYP3A4; incubation time 30 min): 92.32%
Loss of parent compound with CYP3A4 isozyme (%) (recombinant human CYP3A4; incubation time 60 min): 95.20%
Loss of parent compound with CYP2D6 isozyme (%) (CYP2D6; incubation time 0 min): 0.00%
Loss of parent compound with CYP2D6 isozyme (%) (CYP2D6; incubation time 30 min): 19.21%
Loss of parent compound with CYP2D6 isozyme (%) (CYP2D6; incubation time 60 min): 28.01%
Loss of parent compound in simulated gastric fluid (%) ([5]; incubation time 0 min): 0.00%
Loss of parent compound in simulated gastric fluid (%) ([5]; incubation time 30 min): 58.72%
Loss of parent compound in simulated gastric fluid (%) ([5]; incubation time 60 min): 26.67%
Loss of parent compound in simulated gastric fluid (%) ([5]; incubation time 120 min): 94.37%
Loss of parent compound in simulated intestinal fluid (%) [6, 9]: 0.00%
Loss of parent compound in simulated intestinal fluid (%) [6, 10]: 6.73%
Loss of parent compound in simulated intestinal fluid (%) [6, 11]: 13.57%
Loss of parent compound in simulated intestinal fluid (%) [6, 12]: 25.61%

CC(C)COC(=O)N(C)CCCN1c2ccccc2CCc2ccccc21 [RIC-5c, [3-(10,11-Dihydro-dibenzo[b,f]azepin-5-yl)-propyl]-methyl-carbamic acid isobutyl ester]
Loss of parent compound in human plasma (%) ([1]; incubation time 0 min): 0.00%
Loss of parent compound in human plasma (%) ([1]; incubation time 30 min): 5.11%
Loss of parent compound in human plasma (%) ([1]; incubation time 60 min): −1.48%
Loss of parent compound in human plasma (%) ([1]; incubation time 120 min): 25.82%
Loss of parent compound in rat plasma (%) ([2]; incubation time 0 min): 0.00%
Loss of parent compound in rat plasma (%) ([2]; incubation time 30 min): −14.69%
Loss of parent compound in rat plasma (%) ([2]; incubation time 60 min): −2.88%
Loss of parent compound in rat plasma (%) ([2]; incubation time 120 min): 33.40%
Loss of parent compound with no ketoconazole (%) ([3]; incubation time 30 min): 54.01%
Loss of parent compound with no ketoconazole (%) ([3]; incubation time 60 min): 76.36%
Loss of parent compound with ketoconazole (%) ([4]; incubation time 30 min): 6.36%
Loss of parent compound with ketoconazole (%) ([4]; incubation time 60 min): 19.49%
Loss of parent compound with CYP3A4 isozyme (%) (recombinant human CYP3A4; incubation time 0 min): 0.00%
Loss of parent compound with CYP3A4 isozyme (%) (recombinant human CYP3A4; incubation time 30 min): 72.07%
Loss of parent compound with CYP3A4 isozyme (%) (recombinant human CYP3A4; incubation time 60 min): 90.69%
Loss of parent compound with CYP2D6 isozyme (%) (CYP2D6; incubation time 0 min): 0.00%
Loss of parent compound with CYP2D6 isozyme (%) (CYP2D6; incubation time 30 min): 43.71%
Loss of parent compound with CYP2D6 isozyme (%) (CYP2D6; incubation time 60 min): 70.07%
Loss of parent compound in simulated gastric fluid (%) ([5]; incubation time 0 min): 0.00%
Loss of parent compound in simulated gastric fluid (%) ([5]; incubation time 30 min): 70.64%
Loss of parent compound in simulated gastric fluid (%) ([5]; incubation time 60 min): 82.77%
Loss of parent compound in simulated gastric fluid (%) ([5]; incubation time 120 min): 98.11%
Loss of parent compound in simulated intestinal fluid (%) [6, 9]: 0.00%
Loss of parent compound in simulated intestinal fluid (%) [6, 10]: 1.05%
Loss of parent compound in simulated intestinal fluid (%) [6, 11]: 12.68%
Loss of parent compound in simulated intestinal fluid (%) [6, 12]: 21.78%

CCCCCCCCOC(=O)N(C)CCCN1c2ccccc2CCc2ccccc21 [RIC-5d, [3-(10,11-Dihydro-dibenzo[b,f]azepin-5-yl)-propyl]-methyl-carbamic acid octyl ester]
Loss of parent compound in human plasma (%) ([1]; incubation time 0 min): 0.00%
Loss of parent compound in human plasma (%) ([1]; incubation time 30 min): −32.74%
Loss of parent compound in human plasma (%) ([1]; incubation time 60 min): −1.44%
Loss of parent compound in human plasma (%) ([1]; incubation time 120 min): 49.54%
Loss of parent compound in rat plasma (%) ([2]; incubation time 0 min): 0.00%
Loss of parent compound in rat plasma (%) ([2]; incubation time 30 min): −8.16%
Loss of parent compound in rat plasma (%) ([2]; incubation time 60 min): 41.70%
Loss of parent compound in rat plasma (%) ([2]; incubation time 120 min): 73.48%
Loss of parent compound with no ketoconazole (%) ([3]; incubation time 30 min): 59.12%
Loss of parent compound with no ketoconazole (%) ([3]; incubation time 60 min): 74.17%
Loss of parent compound with ketoconazole (%) ([4]; incubation time 30 min): 15.18%
Loss of parent compound with ketoconazole (%) ([4]; incubation time 60 min): 55.88%
Loss of parent compound with CYP3A4 isozyme (%) (recombinant human CYP3A4; incubation time 0 min): 0.00%
Loss of parent compound with CYP3A4 isozyme (%) (recombinant human CYP3A4; incubation time 30 min): 33.66%
Loss of parent compound with CYP3A4 isozyme (%) (recombinant human CYP3A4; incubation time 60 min): 60.64%
Loss of parent compound with CYP2D6 isozyme (%) (CYP2D6; incubation time 0 min): 0.00%
Loss of parent compound with CYP2D6 isozyme (%) (CYP2D6; incubation time 30 min): 18.68%
Loss of parent compound in simulated gastric fluid (%) ([5]; incubation time 0 min): 0.00%
Loss of parent compound in simulated gastric fluid (%) ([5]; incubation time 30 min): 13.84%
Loss of parent compound in simulated intestinal fluid (%) [6, 9]: 0.00%
Loss of parent compound in simulated intestinal fluid (%) [6, 10]: 7.73%
Loss of parent compound in simulated intestinal fluid (%) [6, 11]: −8.72%
Loss of parent compound in simulated intestinal fluid (%) [6, 12]: 4.23%

Fc1ccc([C@@H]2CCNC[C@H]2COc2ccc3c(c2)OCO3)cc1 [paroxetine]
AUC(0-24) [7]: 96.5 ng·h/mL
Cmax [7]: 8.60 ng/mL
Tmax [7]: 5 (3-5) hours
pKa [8]: 9.90
